The record followed here is patent US20100292316A1, “IMPROVED THERAPEUTIC METHODS AND COMPOSITIONS COMPRISING CHROMAN RING COMPOUNDS” (Research Development Foundation, priority 2007, published 2010).

Holding throughout (format): cell-based, human
For one experiment, the system named is PARP. As to the kind of experiment: PARP cleavage (p84) by Western blot, densitometry. To be noted: LNCaP, 40 μM α-TEA 15 h. As for the experimental part: Whole-cell protein extracts were prepared as described previously (Yu et al., 1999), and 50 μg of protein was loaded per lane, separated using SDS-PAGE on a 10-15% gel under reducing conditions, and electroblotted onto a nitrocellulose membrane ([…] Optitran BA-S-supported nitrocellulose; Schleicher and Schuell, Keene, N.H.). Equal loading was verified using GAPDH antibody. Primary rabbit antibodies with specificity for PARP and primary goat antibody with specificity for Arg were purchased from Santa Cruz Biotechnology (Santa Cruz, Calif.). Horseradish peroxidase conjugated goat anti-rabbit or horseradish goat anti-mouse secondary antibody was purchased from Jackson Immunoresearch Laboratory (West Grove, Pa.). Horseradish peroxidase-conjugated donkey anti-goat serum was purchased from Santa Cruz Biotechnology. Immune complexes were visualized using enhanced chemiluminescence detection (Pierce Chemical Co., Rockford, Ill.). Fold differences in level of chemiluminescence were determined by densitometric analyses.
Primary mouse antibody specific for p73 was purchased from IMGENEX (San Diego, Calif.). Primary mouse antibody specific for caspase 8 was purchased from Cell Signaling Technology (Beverly, Mass.). Horseradish peroxidase conjugated goat anti-rabbit or goat anti-mouse secondary antibodies were purchased from Jackson Immunoresearch Laboratory (West Grove, Pa.). Horseradish peroxidase-conjugated donkey […] serum was purchased from Santa Cruz Biotechnology. Immune complexes were visualized using enhanced chemiluminescence detection (Pierce Chemical Co., Rockford, Ill.). Fold differences in level of chemiluminescence were determined by densitometric analyses.

The next experiment relates to FOXO1. Briefly: FOXO1 phosphorylation and nuclear localization (Western blot, cell fractionation). The note with it: LNCaP and PC-3-GFP cells. From the text:
The transcription factor FOXO1 is a downstream substrate of Akt in which phosphorylation by Akt prevents its pro-apoptotic actions (Woods et al., 2002). Since previous studies of α-TEA's mechanism of action in inducing apoptosis in cancer cells show a role for Fas signaling (Shun et al., 2004) and since FOXO1 has been proposed to be a transcriptional regulator of FasL (Ciechomska et al., 2003), it was of interest to investigate the effects of α-TEA on FOXO1 phosphorylation status and cellular location. […] FOXO1 is normally localized in the nucleus (Woods et al., 2002) and phosphorylation of FOXO1 by Akt at Ser 256 promotes the relocation of FOXO1 from the nucleus to the cytosol, thereby inhibiting its transcriptional activity (Greer et al., 2005). As expected, control LNCaP and PC-3-GFP cells had high levels of FOXO1 in the cytosol reflecting the constitutively activated state of Akt in these cells (FIG. 7B).
Plasmids encoding wild type FOXO1 (Flag-tagged FOXO1) and constitutively active FOXO1 (Flag-tagged FOXO1AAA) were generous gifts from Dr. Kun-Liang Guan (Tang et al., 1999). FOXO1 and phospho-FOXO1 antibodies were purchased from Cell Signaling Technology (Beverly, Mass.).
Preparation of cytoplasmic and nuclear extracts for the foregoing experiments was carried-out using methods that are well known in the art. […]
(A western blot detects proteins with antibodies after separation by electrophoresis.)

In the next experiment the test system is FlipL. Briefly: FlipL protein level by immunoblot. To be noted: LNCaP and PC-3-GFP cells, 40 μM α-TEA, time-dependent. From the text: Antibodies to human Flip and survivin used in these experiments were purchased from Santa Cruz Biotechnology (Santa Cruz, Calif.).

Take `Cc1c(C)c2c(c(C)c1OCC(=O)O)CC[C@@](C)(CCC[C@H](C)CCC[C@H](C)CCCC(C)C)O2` [α-TEA]: in the experiment with PARP, the “PARP cleavage in comparison to empty vector control, cells overexpressing Flag-tagged wild type FOXO1” value was found to be 160% and the “PARP cleavage in comparison to empty vector control, cells overexpressing constitutively active Flag-FOXO1 AAA” value is recorded as 230%. For the same compound, the FOXO1 nuclear localization result in the experiment with FOXO1 (40 μM α-TEA for 24 h) is “increase in FOXO1 levels in the nucleus”. In addition, the phospho-FOXO1 levels entry in the experiment on FOXO1 (40 μM α-TEA, 3-24 h, total protein unchanged) is reported as “reduced in a time-dependent manner”. In addition, the “protein levels of FlipL” value in the experiment with FlipL is given as “downregulated”.
